Values after ≈ are worked out from the molar mass of the structure shown. Read-outs that look alike come from different tables or passages of the source.
Assays:
[1] = tested on: human squamous cell lung carcinoma (T222); assay: In vitro cytotoxicity, [3H]leucine uptake, T222 cells; type: cell-based; conditions: for IC50: read-out: IC50 (50% cytotoxic concentration)
Description: (§1) The cytotoxicities of 4-12 were determined by incubation (48 hours) of drug with a human squamous cell lung carcinoma (T222) and percent inhibition determined by measurement of [^3 H]leucine uptake. T222 (Masui, et al. Cancer, 44(3): 1002-1007, 1984) human squamous carcinoma and P3/UCLA (Varki, et al., Cancer Res. 44: 681-687, 1984) human lung carcinoma cells were grown in DMEM medium supplemented with 10% fetal bovine serum and 50 ug/mL gentamicin using standard tissue culture techniques. 1×10^4 target cells were distributed in each well of 96 well tissue culture plates and incubated in leucine deficient medium (leucine free DMEM plus 13 ug/mL L-leucine, 29.2 ug/mL L glutamine, 50 ug/mL gentamicin and 10% dialyzed fetal calf serum) for 16 hours at 37° C. in 5% CO2. The medium was then removed aseptically and compound dilutions were added in 200 ul of leucine deficient medium. Following an additional 48 hour incubation, 4 uCi ^3 H-leucine (NEN, Boston, Mass.) were added to each well and the plates were returned to the incubator for 24 hours. Radioactivity incorporated into macromolecules was determined using an automated cell harvester and liquid scintillation techniques. Data were evaluated as percent reduction in incorporation of radioactivity relative to controls incubated in medium without compound to yield an 50% cytotoxic concentration (IC50).

[2] = tested on: human lung adenocarcinoma (P3/UCLA); assay: In vitro cytotoxicity, similar protocol, P3/UCLA cells; type: cell-based
Description: as §1

[3] = tested on: T222 tumor; assay: Nude mouse xenograft, T222 tumor burden (i.v.); type: in vivo, nude mice; set-up: inhibition of growth of tumors (in words): dose or concentration left out as unconfirmed; conditions: for Number of Deaths/Number of Mice / Percent Inhibition of Tumor Growth: days 3, 5 and 7
Description: Prior to each xenograft experiment, cells were collected by treatment with Trypsin/EDTA (Gibco, Life Technologies, Grand Island, N.Y.) and washed with supplemented DMEM and finally suspended in Hanks balanced salt solution. 1×10^7 cells were injected s.c. into the flank of young adult female nude mice (Charles River Breeding Laboratories, Boston, Mass.). The mice were treated by i.v. injection in the tail vein at various time points. Tumor measurements were taken in two dimensions and converted to an estimate of mass using the formula [(length) (width^2)/2] as described by Geran, et al.. Cancer Chemother. Rep., 3:1-103, 1972. Control groups contained 10 mice with test groups containing 5 mice each. The Student test was used to evaluate differences between mean tumor masses.

[4] = tested on: minor groove of double stranded DNA; conditions: cited from earlier work
[5] = single intravenous subtherapeutic dose; healthy mice; cited from earlier work
[6] = T222 human squamous cell lung carcinoma, 48 hours incubation, [3H]leucine uptake

SMILES: Cc1coc2c(O)cc3c(c12)C(CCl)CN3C(=O)c1cc2cc(NC(=O)c3cc4ccccc4[nH]3)ccc2[nH]1 (single isomer, unassigned; (+)) [Compound 4]
- IC50 [1, 6]: 0.17 ng/mL (≈ 0.315 nM)
- IC50 [2]: 0.27 ng/mL (≈ 0.501 nM)
- Number of Deaths/Number of Mice ([3]; 0.05 mg/kg i.v.): 0/5
- Percent Inhibition of Tumor Growth ([3]; 0.05 mg/kg i.v.): 68%
- Number of Deaths/Number of Mice ([3]; 0.1 mg/kg i.v.): 0/5
- Percent Inhibition of Tumor Growth ([3]; 0.1 mg/kg i.v.): 73%
- Number of Deaths/Number of Mice ([3]; 0.2 mg/kg i.v.): 1/5
- Percent Inhibition of Tumor Growth ([3]; 0.2 mg/kg i.v.): 85%
- Number of Deaths/Number of Mice ([3]; 0.4 mg/kg i.v.): 5/5
- inhibition of growth of tumors (in words) ([3]; intravenously on days 3, 5 and 7, T222 burden injected s.c. at day 0): inhibited the growth of tumors

SMILES: Cc1coc2c(O)cc3c(c12)C(CCl)CN3C(=O)c1cc2cc(NC(=O)c3cc4ccccc4o3)ccc2[nH]1 (single isomer, unassigned; (+)) [Compound 5]
- IC50 [1, 6]: 0.15 ng/mL (≈ 0.278 nM)

SMILES: Cc1coc2c(O)cc3c(c12)C(CCl)CN3C(=O)c1cc2cc(NC(=O)c3cc4ccccc4s3)ccc2[nH]1 (single isomer, unassigned; (+)) [Compound 6]
- IC50 [1, 6]: 0.2 ng/mL (≈ 0.36 nM)

SMILES: Cc1coc2c(O)cc3c(c12)C(CCl)CN3C(=O)c1cc2cc(NC(=O)c3cc4ccccc4[nH]3)ccc2o1 (single isomer, unassigned; (+)) [Compound 7]
- IC50 [1, 6]: 0.23 ng/mL (≈ 0.426 nM)

SMILES: Cc1coc2c(O)cc3c(c12)C(CCl)CN3C(=O)c1cc2cc(NC(=O)c3cc4ccccc4o3)ccc2o1 (single isomer, unassigned; (+)) [Compound 8]
- IC50 [1, 6]: 0.37 ng/mL (≈ 0.684 nM)

SMILES: Cc1coc2c(O)cc3c(c12)C(CCl)CN3C(=O)c1cc2cc(NC(=O)c3cc4ccccc4s3)ccc2o1 (single isomer, unassigned; (+)) [Compound 9]
- IC50 [1, 6]: 0.56 ng/mL (≈ 1.01 nM)

SMILES: Cc1coc2c(O)cc3c(c12)C(CCl)CN3C(=O)c1cc2cc(NC(=O)c3cc4ccccc4[nH]3)ccc2s1 (single isomer, unassigned; (+)) [Compound 10]
- IC50 [1, 6]: 0.29 ng/mL (≈ 0.522 nM)

SMILES: Cc1coc2c(O)cc3c(c12)C(CCl)CN3C(=O)c1cc2cc(NC(=O)c3cc4ccccc4o3)ccc2s1 (single isomer, unassigned; (+)) [Compound 11]
- IC50 [1, 6]: 0.26 ng/mL (≈ 0.467 nM)

SMILES: Cc1coc2c(O)cc3c(c12)C(CCl)CN3C(=O)c1cc2cc(NC(=O)c3cc4ccccc4s3)ccc2s1 (single isomer, unassigned; (+)) [Compound 12]
- IC50 [1, 6]: 0.2 ng/mL (≈ 0.349 nM)

SMILES: CCC1(O)CC2CN(CCc3c([nH]c4ccccc34)C(C(=O)OC)(c3cc4c(cc3OC)N(C)C3C(O)(C(=O)NN)C(O)C5(CC)C=CCN6CCC43C65)C2)C1 (stereo not shown) [4-desacetylvinblastine-3-carboxhydrazide, reference compound]
- IC50 ([1]; Homo sapiens, T222, 48 h): 3 ng/mL (≈ 3.9 nM)

SMILES: COc1c(O)c2c(c3cc(C(=O)N4CCc5c4c(O)c(OC)c4[nH]c(C(=O)N6CC7CC78C6=CC(=O)c6[nH]cc(C)c68)cc54)[nH]c13)CCN2C(N)=O (stereo not shown) [CC-1065]
- DNA binding [4]: binds covalently to the minor groove of double stranded DNA
- delayed deaths / hepatotoxicity [5]: led to delayed deaths of healthy mice as a result of the hepatotoxicity

SMILES: Cc1coc2c(O)cc3c(c12)C(CCl)CN3C(=O)c1cc2cc(NC(=O)c3cc4ccccc4[nH]3)ccc2[nH]1 (stereo not drawn) [enantiomer of 4]
- antineoplastic potency relative to 4 ([1]; T222 cell line, compared with 4): approximately ten fold less potent
